Results published in patent publication US20090232838A1, “Ligands of melanocortin receptors” (priority 2005, published 2009).
Read-outs that look alike come from different tables or passages of the source.

Tests used:
Format in all cases: cell-based
[1] = target: T1, hMC1-R (Homo sapiens, UniProt Q01726); assay: cyclic AMP bioassay, hMC1-R
T1 construct: expressed in transfected cells; host or cells: CHO-K1

[2] = target: T2, hMC3-R (Homo sapiens, UniProt P41968); assay: cyclic AMP bioassay, hMC3-R; conditions: for Kb: Table 3A, cAMP in CHO-K1 cells, antagonist potency by Schild analysis, read-out: Kb hMC3-R
T2 construct: expressed in transfected cells; host or cells: CHO-K1
T2 sequence (P41968 whole entry): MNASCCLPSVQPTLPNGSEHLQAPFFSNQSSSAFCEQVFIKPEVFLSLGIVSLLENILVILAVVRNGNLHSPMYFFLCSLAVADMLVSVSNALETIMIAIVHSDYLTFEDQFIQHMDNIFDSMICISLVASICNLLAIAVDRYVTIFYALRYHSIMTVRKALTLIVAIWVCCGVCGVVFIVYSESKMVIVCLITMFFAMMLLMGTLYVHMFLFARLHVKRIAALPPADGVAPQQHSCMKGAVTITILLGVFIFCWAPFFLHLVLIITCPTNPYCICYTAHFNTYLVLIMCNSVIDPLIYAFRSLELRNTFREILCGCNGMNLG
Experimental: (§1) Intracellular cyclic AMP (cAMP) levels were determined by an electrochemiluminescence (ECL) assay (Meso Scale Discovery®, Gaithersburg, Md.; referred to hereinafter as MSD). […] Transgenic CHO-K1 cells stably expressing hMC receptor subtypes 1, 3, 4 or 5 were dispensed at a density of approximately 7,000 cells/well in 384-well Multi-Arrays plates (MSD) containing integrated carbon electrodes and coated with anti-CAMP antibody. Increasing concentrations of the test compounds were added and the cells were incubated for approximately 40 minutes at approximately 37° C. […] At the end of the second incubation period read buffer (Tris-buffered solution containing an ECL co-reactant and Triton X-100 at ph 7.8) was added and the cAMP levels in the cell lysates were immediately determined by ECL detection with a Sector Imager 6000 Reader® (MSD). Data were analyzed using a computer-assisted non-linear regression analysis (XL fit; IDBS) and reported as either an EC50 value or a Kb value.
(§2) The Kb value reflects the potency of an antagonist and is determined by Schild analysis. In brief, concentration-response curves of an agonist are carried out in the presence of increasing concentrations of an antagonist. […] It is calculated by extrapolating the line on a Schild plot to zero on the y-axis.

[3] = target: T3, hMC5-R (Homo sapiens, UniProt P33032); assay: cyclic AMP bioassay, hMC5-R
T3 construct: expressed in transfected cells; host or cells: CHO-K1
T3 sequence (P33032 whole entry): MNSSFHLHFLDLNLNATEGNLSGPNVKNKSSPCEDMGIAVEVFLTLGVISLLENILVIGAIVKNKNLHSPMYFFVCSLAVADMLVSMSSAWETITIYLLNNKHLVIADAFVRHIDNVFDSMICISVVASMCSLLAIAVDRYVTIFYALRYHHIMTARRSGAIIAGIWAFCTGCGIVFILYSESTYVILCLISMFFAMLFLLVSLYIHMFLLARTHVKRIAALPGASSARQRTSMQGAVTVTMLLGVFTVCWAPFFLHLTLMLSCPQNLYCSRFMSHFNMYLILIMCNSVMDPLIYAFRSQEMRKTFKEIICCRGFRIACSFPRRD
Experimental: as §1, §2

[4] = target: T4, hMC4-R (Homo sapiens, UniProt P32245); assay: cyclic AMP bioassay, hMC4-R; conditions: for Kb: Table 3A, cAMP in CHO-K1 cells, antagonist potency by Schild analysis, read-out: Kb hMC4-R
T4 construct: expressed in transfected cells; host or cells: CHO-K1
T4 sequence (P32245 whole entry): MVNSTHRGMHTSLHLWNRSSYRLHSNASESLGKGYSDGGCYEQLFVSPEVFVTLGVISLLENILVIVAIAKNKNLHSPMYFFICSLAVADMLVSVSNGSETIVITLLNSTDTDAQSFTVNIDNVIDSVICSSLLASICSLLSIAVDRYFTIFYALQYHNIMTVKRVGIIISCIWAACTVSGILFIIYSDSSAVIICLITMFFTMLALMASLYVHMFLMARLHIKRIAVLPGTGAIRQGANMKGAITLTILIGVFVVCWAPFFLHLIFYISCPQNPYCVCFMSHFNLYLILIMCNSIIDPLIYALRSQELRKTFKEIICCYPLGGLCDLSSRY
Experimental: as §1, §2

[5] = Table 3A, cAMP in CHO-K1 cells, agonist, read-out: EC50 hMC1-R
[6] = Table 3A, cAMP in CHO-K1 cells, agonist, read-out: EC50 hMC5-R

T1 sequence (Q01726 whole entry): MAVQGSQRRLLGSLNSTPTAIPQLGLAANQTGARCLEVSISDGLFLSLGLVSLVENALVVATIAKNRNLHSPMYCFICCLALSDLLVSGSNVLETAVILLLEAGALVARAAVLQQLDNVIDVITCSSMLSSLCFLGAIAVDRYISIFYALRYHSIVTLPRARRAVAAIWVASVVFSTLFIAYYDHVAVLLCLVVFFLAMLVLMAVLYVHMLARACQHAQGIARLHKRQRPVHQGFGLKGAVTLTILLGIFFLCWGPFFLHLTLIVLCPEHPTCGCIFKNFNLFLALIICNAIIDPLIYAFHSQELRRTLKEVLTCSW

Row | Structure (SMILES) | EC50 [1] [nM] | EC50 [2] [nM] | EC50 [3] [nM] | EC50 [4] [nM] | EC50 [1, 5] [nM] | Kb [2] [nM] | EC50 [3, 6] [nM] | Kb [4] [nM]
1 | CCCC[C@H](NC(C)=O)C(=O)N[C@H]1CSSC[C@@H](C(=O)NCCC(=O)N[C@@H](Cc2ccc(O)cc2)C(=O)NCC(=O)N[C@@H](CCCNC(=N)N)C(=O)N[C@@H](CCCCN)C(=O)N[C@@H](CCCNC(=N)N)C(=O)N[C@@H](CCCNC(=N)N)C(=O)N[C@@H](CCCNC(=N)N)C(=O)N[C@@H](CCC(N)=O)C(=O)N[C@@H](CCCNC(=N)N)C(=O)N[C@@H](CCCNC(=N)N)C(=O)N[C@@H](CCCNC(=N)N)C(N)=O)NC(=O)[C@H](Cc2c[nH]c3ccccc23)NC(=O)[C@H](CCCNC(=N)N)NC(=O)[C@@H](Cc2ccccc2)NC(=O)[C@H](Cc2c[nH]cn2)NC(=O)[C@@H](C)NC1=O | 7.57 | 4.18 | 1790 | 0.6 |  |  |  | 
2 | CCCC[C@H](NC(C)=O)C(=O)N[C@H]1CSSC[C@@H](C(=O)NCCC(=O)N[C@@H](Cc2ccc(O)cc2)C(=O)NCC(=O)N[C@@H](CCCNC(=N)N)C(=O)N[C@@H](CCCNC(=N)N)C(=O)N[C@@H](CCCCN)C(=O)N[C@@H](CCCNC(=N)N)C(=O)N[C@@H](CCCNC(=N)N)C(=O)N[C@@H](CCC(N)=O)C(=O)N[C@@H](CCCNC(=N)N)C(=O)N[C@@H](CCCNC(=N)N)C(=O)N[C@@H](CCCNC(=N)N)C(N)=O)NC(=O)[C@H](Cc2c[nH]c3ccccc23)NC(=O)[C@H](CCCNC(=N)N)NC(=O)[C@@H](Cc2ccccc2)NC(=O)[C@H](Cc2c[nH]cn2)NC(=O)[C@@H](C)NC1=O | 5.66 | 4.7 | 1550 | 0.422 |  |  |  | 
3 | CCCC[C@H](NC(C)=O)C(=O)N[C@H]1CSSC[C@@H](C(=O)NCCC(=O)NCC(=O)N[C@@H](CCCNC(=N)N)C(=O)N[C@@H](CCCNC(=N)N)C(=O)N[C@@H](CCCCN)C(=O)N[C@@H](CCCNC(=N)N)C(=O)N[C@@H](CCCNC(=N)N)C(=O)N[C@@H](CCC(N)=O)C(=O)N[C@@H](CCCNC(=N)N)C(=O)N[C@@H](CCCNC(=N)N)C(=O)N[C@@H](CCCNC(=N)N)C(N)=O)NC(=O)[C@H](Cc2c[nH]c3ccccc23)NC(=O)[C@H](CCCNC(=N)N)NC(=O)[C@@H](Cc2ccccc2)NC(=O)[C@H](Cc2c[nH]cn2)NC(=O)[C@@H](C)NC1=O | 2.36 | 2.74 | 500 | 0.26 |  |  |  | 
4 | CC(=O)N[C@H]1CSSC[C@@H](C(=O)N2CCC[C@H]2C(=O)N2CCC[C@H]2C(=O)N[C@@H](CCCCN)C(=O)N[C@@H](CC(=O)O)C(=O)NCCC(=O)N[C@@H](Cc2ccc(O)cc2)C(=O)NCC(=O)N[C@@H](CCCNC(=N)N)C(=O)N[C@@H](CCCCN)C(=O)N[C@@H](CCCCN)C(=O)N[C@@H](CCC(N)=O)C(=O)N[C@@H](CCCNC(=N)N)C(=O)N[C@@H](CCCNC(=N)N)C(=O)N[C@@H](CCCNC(=N)N)C(=O)N[C@@H](CCCNC(=N)N)C(=O)N[C@@H](CCCNC(=N)N)C(N)=O)NC(=O)[C@H](C)NC(=O)[C@H](Cc2c[nH]c3ccccc23)NC(=O)[C@H](CCCNC(=N)N)NC(=O)[C@@H](Cc2ccc3ccccc3c2)NC(=O)[C@H](Cc2c[nH]cn2)NC(=O)[C@H](CCC(=O)O)NC1=O |  |  |  |  | 6.7 | 9.38 | 46.2 | 11.7
5 | CC(=O)N[C@H]1CSSC[C@@H](C(=O)N2CCC[C@H]2C(=O)N2CCC[C@H]2C(=O)N[C@@H](CCCCN)C(=O)N[C@@H](CC(=O)O)C(=O)NCCC(=O)N[C@@H](Cc2ccc(O)cc2)C(=O)NCC(=O)N[C@@H](CCCNC(=N)N)C(=O)N[C@@H](CCCCN)C(=O)N[C@@H](CCC(N)=O)C(=O)N[C@@H](CCCCN)C(=O)N[C@@H](CCCNC(=N)N)C(=O)N[C@@H](CCCNC(=N)N)C(=O)N[C@@H](CCCNC(=N)N)C(=O)N[C@@H](CCCNC(=N)N)C(=O)N[C@@H](CCCNC(=N)N)C(N)=O)NC(=O)[C@H](C)NC(=O)[C@H](Cc2c[nH]c3ccccc23)NC(=O)[C@H](CCCNC(=N)N)NC(=O)[C@@H](Cc2ccc3ccccc3c2)NC(=O)[C@H](Cc2c[nH]cn2)NC(=O)[C@H](CCC(=O)O)NC1=O |  |  |  |  | 7.9 | 41.7 | 62.4 | 10.9
